The values that follow are results of earlier work, collected in patent US20100151056A1, “DIETARY SUPPLEMENTS FOR DECREASING THE LATENT FOREIGN DNA LOAD” (priority 2008, published 2010).

Where two headings read alike, the source gives them in different places.

Data set [1] relates to CMV.
Data set [2] relates to EBV immediate-early protein Rta in P3HR1 cells.
For data set [3], the system named is HBV cccDNA in HepG2-N10 cells. The conditions noted are these: 22.9 ug/ml.
Data set [4] relates to KSHV latent genes (LANA-1, v-cyclin, v-FLIP).
In data set [5] the test system is LT1/LT2 promoter. The conditions noted are these: BJAB cells, GA-treated vs untreated.
The test system of data set [6] is LANA-1, v-cyclin, and v-FLIP proteins.
In data set [7] the test system is cdk6. The conditions noted are these: BC-1, BCBL-1 and BC-3 cells, Western blot. (In general: Immunoblotting shows a protein as a band on a membrane.)
In data set [8] the test system is KSHV-positive B cells.
For data set [9], the system named is caspase cascade. To be noted: KSHV-positive B cells untreated and GA-treated, ELISA. Background: An ELISA detects its analyte on a solid surface through an enzyme-linked reagent.
The subject of data set [10] is AIF. The conditions noted are these: KSHV-positive B cells, GA for 4 days.
In data set [11] the test system is p53.
Data set [12] concerns catalase.
Data set [13] deals with KSHV-positive and uninfected B cells.
For data set [14], the system named is B cells. To be noted: 3 and 4 mM.
Data set [15] has as its system Epstein-Barr virus in Raji cells. The conditions noted are these: Raji cells superinfected with P2HR1 (LS) virus; read-out: concentration inhibiting EBV genome copy number and antigen expression by 50% (EC50).

On to `Nc1nc(O)c2ncn(COC(CO)CO)c2n1` [ganciclovir], for which the “reduction of viral DNA load” value in data set [1] (by day 7, initial ganciclovir treatment of the same patient) was 1 log.

Consider `C[C@H]1[C@H](OC(=O)CCC(=O)O)O[C@@H]2O[C@@]3(C)CC[C@H]4[C@H](C)CC[C@@H]1[C@@]24OO3` [artesunate, Artesunate], for which the “viremia after completion of therapy” value in [1] (76 days after completion of therapy) was “no increase in viremia”. In addition, the “viral decay T 1/2” value in [1] (CMV load kinetics during treatment) was 22 to 45.6 h. Moreover, the “decrease of viral DNA load” value in data set [1] (by day 7, oral 100 mg/day) is 1.7-2.1 log. Further, the adverse effects result in data set [1] (first 30 days of treatment) is listed as “no adverse effects”. Further, the “time to rapid reduction in viral load and improved hematopoiesis” value in data set [1] (oral 100 mg/day) was at most 10 days.

On to `O=C(O[C@@H]1Cc2c(O)cc(O)cc2O[C@@H]1c1cc(O)c(O)c(O)c1)c1cc(O)c(O)c(O)c1` [EGCG, Epigallocatechin gallate], for which the “P3HR1 cells expressing Rta” value is given as 9.8% in data set [2] (70 mM EGCG) and 0.5% in data set [2] (100 mM EGCG). In data set [3], the “reduction of HBV cccDNA concentration” value is listed as 60%.

As for `CC(/C=C/C(=O)NO)=C\[C@@H](C)C(=O)c1ccc(N(C)C)cc1` [TSA, reference compound], the “P3HR1 cells expressing Rta” value in data set [2] (following treatment with TSA) is 23.4%.

With `CC1(C)[C@@H](O[C@H]2O[C@H](C(=O)O)[C@@H](O)[C@H](O)[C@H]2O[C@@H]2O[C@H](C(=O)O)[C@@H](O)[C@H](O)[C@H]2O)CC[C@]2(C)[C@H]3C(=O)C=C4[C@@H]5C[C@@](C)(C(=O)O)CC[C@]5(C)CC[C@@]4(C)[C@]3(C)CC[C@@H]12` [GA, glycyrrhizic acid], the “LT1 transcripts (LANA-1 probe)” value in [4] (GA 3 and 4 mM, BCBL-1 2 days, BC-3 3 days, BC-2 and BC-1 6 days) was “dose-dependent decrease”. Besides, in data set [4] (GA-treated KSHV-positive B cells), the “LT2 transcripts (v-FLIP and v-cyclin probes)” value is given as “increase”. In addition, the “LT1/LT2 promoter activity (luciferase expression)” value in data set [5] was “does not affect”. For the same compound, the LANA-1 expression result in data set [6] (KSHV positive cells, BCBL-1, BC-3, BC-1 treated 2, 3, 6 days) is “decreased”. Besides, the cells over-expressing v-cyclin in data set [6] (KSHV-positive B cells following GA treatment, FACS) is 35-50%. The “increase of cdk6 expression” value in [7] is 8- to 11 fold. In addition, in data set [8] (KSHV-negative BJAB control cells), the “apoptosis in BJAB cells” value is “did not result in apoptosis”. In addition, the “apoptosis (TUNEL-positive cells)” value in [8] (KSHV-positive cells, FACS) is 80-95%. The “disruption of mitochondrial membranes or DNA condensation” value in [8] (uninfected B cells treated with GA) is reported as “no disruptions”. For the same compound, the “activation of the caspase cascade” value in [9] is on record as “no activation”. Besides, the AIF localisation result in data set [10] is “diffuse nuclear staining”. Besides, the “phosphorylated form of p53” value in data set [11] (BC-3 cells transfected with pLPCX/LANA-1, 4 mM GA for 4 days) is recorded as “very low concentration”. For the same compound, the “p53 phosphorylated at Ser15” value in data set [11] (KSHV-positive B cells following GA) was “high concentration”. In addition, the catalase activity increase is 3 fold in data set [12] (BC-1), 4 fold in [12] (BC-3) and 2 fold in data set [12] (BCBL-1). For the same compound, the “cells blocked in G1” value is 99% in [13] (KSHV-positive B cells, after 6 days GA) and 25-50% in [13] (uninfected cells, untreated or following GA). The “toxicity at the tested levels” value in data set [14] was “not being toxic”. Further, in [15], the EC50 is around 5 µM.

Regarding `CCCCCCCCCCCCCC(=O)O[C@@H]1[C@@H](C)[C@@]2(O)[C@@H](C=C(CO)C[C@]3(O)C(=O)C(C)=C[C@@H]23)[C@@H]2C(C)(C)[C@]12OC(C)=O` [TPA, 12-O-tetradecanoyl-phorbol-13-acetate, reference compound], the “disruption of mitochondrial membranes or DNA condensation” value in data set [8] (TPA treatment (latent to lytic switch)) is given as “did not disrupt”.
